From patent US6399607B1, “Aminomethylene amide analogs of pyrazinamide with intracellular antimycobacterial activity against pyrazinamide-resistant mycobacteria combined with a rifamycin” (priority 1999, dated 2002)

Test system: M. tuberculosis
Test: Influence of pH on MICs (Table 5)
Assay type: cell-based, Mycobacterium tuberculosis
Set-up: unit not given beside the values
Conditions: ATCC 35828 (PZA resistant), pH 6.0

SMILES	MIC, ATCC 35828 pH 6.0
O=C(NCN1CCCC1)c1cnccn1 [Compound 1, pyrazine-2-carboxylic acid (pyrrolidin-1-ylmethyl)-amide]	100
CCN(CC)CNC(=O)c1cnccn1 [Compound 2, pyrazine-2-carboxylic acid diethylaminomethyl-amide]	100
NC(=O)c1cnccn1 [PZA, Pyrazinamide]	>300
O=C(NCN1CCOCC1)c1cnccn1 [MZA, morphazinamide]	100

Same assay, conditions: ATCC 35828 (PZA resistant), pH 6.8

SMILES	MIC, ATCC 35828 pH 6.8
O=C(NCN1CCCC1)c1cnccn1 [Compound 1, pyrazine-2-carboxylic acid (pyrrolidin-1-ylmethyl)-amide]	100
CCN(CC)CNC(=O)c1cnccn1 [Compound 2, pyrazine-2-carboxylic acid diethylaminomethyl-amide]	100
NC(=O)c1cnccn1 [PZA, Pyrazinamide]	>300
O=C(NCN1CCOCC1)c1cnccn1 [MZA, morphazinamide]	100

Test system: M. tuberculosis
Test: not given
Assay type: cell-based, Mycobacterium tuberculosis
Conditions: pH 5.5, 6.0, 6.8

SMILES	activity against susceptible strains by pH
NC(=O)c1cnccn1 [PZA, Pyrazinamide]	active against susceptible strains at pH 5.5 and 6.0 only, and not at pH 6.8

Same assay, conditions: pH 6.8 v. 5.5 and 6.0

SMILES	activity at pH 6.8 compared with pH levels 5.5 and 6.0
O=C(NCN1CCOCC1)c1cnccn1 [MZA, morphazinamide]	no different from or only slightly higher than at pH levels 5.5 and 6.0

Same assay, conditions: susceptible strains, pH 5.5 and 6.0

SMILES	MICs against susceptible strains at pH 5.5 and 6.0 compared with PZA
O=C(NCN1CCOCC1)c1cnccn1 [MZA, morphazinamide]	in the same range as those of PZA

Test system: PZA-resistant Mtb in macrophages
Test: not given
Assay type: cell-based, Mycobacterium tuberculosis
Conditions: FIG. 1; in comparison with PZA or the control

SMILES	number of colony forming units (CFU) of M. tuberculosis from macrophages
CCN(CC)CNC(=O)c1cnccn1 [Compound 2, pyrazine-2-carboxylic acid diethylaminomethyl-amide]	reduced the number of CFU

Test system: M. tuberculosis
Test: not given
Assay type: cell-based, Mycobacterium tuberculosis
Set-up: unit not given beside the values
Conditions: ATCC 27294 = H37RV, strain susceptible to pyrazinamide

SMILES	MIC, M. tuberculosis ATCC 27294
CN1CCN(CNC(=O)c2cnccn2)CC1 [Compound 7, (piperazin-1-ylmethyl)-amide]	300
NC(=O)c1cnccn1 [PZA, Pyrazinamide]	33
O=C(NCN1CCOCC1)c1cnccn1 [Compound 4, (morpholin-4-ylmethyl)-amide]	100
CCCN(CCC)CNC(=O)c1cnccn1 [Compound 9, dipropylaminomethyl-amide]	100
CN(CNC(=O)c1cnccn1)Cc1ccccc1 [Compound 8, [(benzyl-methyl-amino)-methyl]-amide]	100

Same assay, conditions: ATCC 35822, isoniazid (INH)-resistant strain

SMILES	MIC, M. tuberculosis ATCC 35822
CN1CCN(CNC(=O)c2cnccn2)CC1 [Compound 7, (piperazin-1-ylmethyl)-amide]	100
NC(=O)c1cnccn1 [PZA, Pyrazinamide]	33
O=C(NCN1CCOCC1)c1cnccn1 [Compound 4, (morpholin-4-ylmethyl)-amide]	33
CCCN(CCC)CNC(=O)c1cnccn1 [Compound 9, dipropylaminomethyl-amide]	100
CN(CNC(=O)c1cnccn1)Cc1ccccc1 [Compound 8, [(benzyl-methyl-amino)-methyl]-amide]	100

Same assay, conditions: ATCC35828, PZA resistant strain

SMILES	MIC, M. tuberculosis ATCC 35828
CN1CCN(CNC(=O)c2cnccn2)CC1 [Compound 7, (piperazin-1-ylmethyl)-amide]	300
NC(=O)c1cnccn1 [PZA, Pyrazinamide]	>300
O=C(NCN1CCOCC1)c1cnccn1 [Compound 4, (morpholin-4-ylmethyl)-amide]	100
CCCN(CCC)CNC(=O)c1cnccn1 [Compound 9, dipropylaminomethyl-amide]	100
CN(CNC(=O)c1cnccn1)Cc1ccccc1 [Compound 8, [(benzyl-methyl-amino)-methyl]-amide]	100

Same assay, conditions: MS6210, resistant clinical isolate

SMILES	MIC, M. tuberculosis MS 6210
CN1CCN(CNC(=O)c2cnccn2)CC1 [Compound 7, (piperazin-1-ylmethyl)-amide]	100
NC(=O)c1cnccn1 [PZA, Pyrazinamide]	100
O=C(NCN1CCOCC1)c1cnccn1 [Compound 4, (morpholin-4-ylmethyl)-amide]	100
CCCN(CCC)CNC(=O)c1cnccn1 [Compound 9, dipropylaminomethyl-amide]	100
CN(CNC(=O)c1cnccn1)Cc1ccccc1 [Compound 8, [(benzyl-methyl-amino)-methyl]-amide]	33

Test system: M. tuberculosis
Test: MIC in modified 7H10 broth against M. tuberculosis (Table 3)
Assay type: cell-based, Mycobacterium tuberculosis
Set-up: MIC, M. tuberculosis ATCC 35828: unit not given beside the values
Conditions: ATCC 35828 (PZA resistant), pH 5.8

SMILES	MIC, M. tuberculosis ATCC 35828
CCN(CC)CNC(=O)c1cnc(N(CC)CC)cn1 [Compound 17, 5-diethylamino-pyrazinoic acid diethylaminomethyl-amide]	16
NC(=O)c1cnc(Cl)cn1 [Compound 5-Chloro-PZA, 5-chloro-pyrazinamide, reference compound]	8
O=C(NCN1CCCC1)c1cnccn1 [Compound 1, pyrazine-2-carboxylic acid (pyrrolidin-1-ylmethyl)-amide]	2
CCN(CC)CNC(=O)c1cnccn1 [Compound 2, pyrazine-2-carboxylic acid diethylaminomethyl-amide]	1
NC(=O)c1cnccn1 [PZA, Pyrazinamide]	2048
O=C(NCN1CCOCC1)c1cnccn1 [Compound 4, (morpholin-4-ylmethyl)-amide]	16

Test system: M. tuberculosis
Test: microbe, parasite or virus in culture
Assay type: cell-based, Mycobacterium tuberculosis
Set-up: MIC, PZA-resistant strain at pH 6.0: unit not given beside the values
Conditions: 7H12 BACTEC broth, pH 6.0

SMILES	MIC, INH-resistant strain, pH 6.0 [g./ml]	MIC, PZA-resistant strain, pH 6.0 [g./ml]
O=C(NCN1CCCC1)c1cnccn1 [Compound 1, pyrazine-2-carboxylic acid (pyrrolidin-1-ylmethyl)-amide]	100	100
CCN(CC)CNC(=O)c1cnccn1 [Compound 2, pyrazine-2-carboxylic acid diethylaminomethyl-amide]	100	100
NC(=O)c1cnccn1 [PZA, Pyrazinamide]	33	>300
O=C(NCN1CCOCC1)c1cnccn1 [MZA, morphazinamide]	100	100

Same assay, conditions: 7H12 BACTEC broth, pH 6.8

SMILES	MIC, INH-resistant strain, pH 6.8 [g./ml]	MIC, PZA-resistant strain, pH 6.8 [g./ml]
O=C(NCN1CCCC1)c1cnccn1 [Compound 1, pyrazine-2-carboxylic acid (pyrrolidin-1-ylmethyl)-amide]	100	100
CCN(CC)CNC(=O)c1cnccn1 [Compound 2, pyrazine-2-carboxylic acid diethylaminomethyl-amide]	100	100
NC(=O)c1cnccn1 [PZA, Pyrazinamide]	>300	>300
O=C(NCN1CCOCC1)c1cnccn1 [MZA, morphazinamide]	100	100

Same assay, conditions: PZA-resistant strain, pH 5.5

SMILES	MIC, PZA-resistant strain, pH 5.5 [g./ml]
O=C(NCN1CCCC1)c1cnccn1 [Compound 1, pyrazine-2-carboxylic acid (pyrrolidin-1-ylmethyl)-amide]	100
NC(=O)c1cnccn1 [PZA, Pyrazinamide]	> 300
O=C(NCN1CCOCC1)c1cnccn1 [MZA, morphazinamide]	100

Same assay, conditions: PZA-resistant strain, pH 6.0

SMILES	MIC, PZA-resistant strain at pH 6.0
NC(=O)c1cnccn1 [PZA, Pyrazinamide]	> 300
